Measurements from patent publication US20100278938A1, “GENETIC TEST AND PET DIET” (MARS, INC, priority 2007, published 2010).

Assay: Pharmacokinetic study of oral zinc gluconate, plasma zinc by atomic absorption spectrometry
Assay type: in vivo, Labrador Retrievers
Design: unit not given here
Experimental: Two unrelated nine-year old, healthy Labrador Retrievers (1 female and 1 male) were used in a pharmacokinetic study. Food was withheld for a 12-hour period prior to oral administration of zinc, and during the initial 6-hour testing period. Water was freely available. […] Heparinized blood samples (4 ml) were collected from the jugular vein before dosing (time 0) and 15, 30, 45, 60, 90, 120 minutes, and 4, 8, 12 and 24 hours after application of the drug. Plasma was stored at −20° C. until analysis for zinc using atomic absorption spectrometry.
In addition the test was used to detect a difference between group-1 and group-2 before the study, at recheck-1, and at recheck-2 (significance level p<0.05).

For zinc gluconate, the “K01: absorption rate constant” value (Dog 1, oral 10 mg/kg) was 0.5672, the “K10: elimination rate constant” value (Dog 1, oral 10 mg/kg) was 0.05373 and the “K01: absorption rate constant” value (Dog 2, oral 5 mg/kg) was 1.161. For the same substance, the “K10: elimination rate constant” value (Dog 2, oral 5 mg/kg) was 0.03789.
